{
  "source": "patent US20230030989A1",
  "about": "“JUST SUNSCREEN” (Pouch Pac Innovations, LLC, priority 2019, published 2023)",
  "settings": "in vivo",
  "from_the_text": "Subjects reported to the testing facility, at which time inclusion/exclusion criteria was reviewed and Informed Consent obtained. Upon verification of eligibility to enroll, the test articles were applied to the upper arm of each subject. The test articles were applied to the Webril□ disks according to a dose regime (see Section 5.1). The skin was marked with dots of crystal violet applied on either side of the top disk and below the bottom disk of the strip to enable exact location of subsequent patches. Each subject was asked to avoid the dye marks during washing and to keep the patches dry.\nSubjects received patches containing the test article and two standard controls which were applied as 0.2 ml/0.2 g samples in one of five randomly assigned orders on the upper arm. The sample order for each subject was documented and maintained throughout the study in the form of a color-coded identification card. Subjects were instructed to keep the patches dry and in place for 23 hours then to remove and discard them and to return to the test center one hour later. Patches were applied on Days 1, 2, 3 and 4. Patches were applied to the same site on each day unless a reaction stronger than a mild erythema (i.e. greater than a score of 1.5 (Appendix 5)) was present in which case the patch strip was cut and the relevant patch (es) not reapplied. Assessment of patch sites was immediately before application of the next patch on Days 2, 3, 4 and on Day 5. After removal of the patches the test sites were wiped with a damp tissue to remove any remaining product.",
  "data": [
    {"smiles": "CCCCCCCCCCCCOS(=O)(=O)[O-].[Na+]", "note": "[0.3% W/V SLS]", "values": [
      {"measurement": "patch site score Day 2, MEAN", "result": 0.08},
      {"measurement": "patch site score Day 3, MEAN", "result": 0.37},
      {"measurement": "patch site score Day 4, MEAN", "result": 0.63},
      {"measurement": "patch site score Day 5, MEAN", "result": 0.82}
    ]}
  ]
}
